# According to EP2319515A1, “COCCIDICIDE COMBINATION FOR VETERINARY USE” (Laboratorio Avi-Mex, S.A. De C.V., priority 2008, dated 2010):
# System: Eimeria tenella sporocytes
# Assay: in vitro comparative trials for effectiveness: chicken fibroblasts infected with E. tenella sporocytes
# Assay type: cell-based
# Details: 24 hours of incubation; for cells quantified in 9 fields, X (±SD): CS-3 chicken fibroblasts + E. tenella sporocytes (about 3 per cell), microscope 40 X; for cells quantified in 9 fields, Means mean (±SD): mean of replications A to C, CS-3 chicken fibroblasts + E. tenella sporocytes
SMILES,"cells quantified in 9 fields, X (±SD) (Replication A)","cells quantified in 9 fields, X (±SD) (Replication B)","cells quantified in 9 fields, X (±SD) (Replication C)","cells quantified in 9 fields, Means mean (±SD)"
"CO[C@@H]1[C@@H](OC)[C@H](C)[C@@](O)(CC(=O)O)O[C@H]1[C@H](C)[C@H]1O[C@@]2(CC[C@@](C)([C@H]3CC[C@@](C)([C@@H]4O[C@@H]([C@H]5O[C@](C)(O)[C@H](C)C[C@@H]5C)C[C@@H]4O[C@@H]4C[C@H](OC)[C@@H](OC)[C@H](C)O4)O3)O2)C[C@H](O)[C@H]1C [Example 1, Maduramicine]",268 (29),156 (35),239 (21),221 (58)
Cc1cc(-n2c(=O)[nH]c(=O)n(C)c2=O)ccc1Oc1ccc(SC(F)(F)F)cc1 [Example 2],999 (12),899 (8),789 (6),895 (105)
